Assay results published in patent publication US20040087480A1, “Calcium channel target for controlling epidermal keratinocyte growth in psoriasis, and basal and squamous cell carcinomas” (Fujisawa Pharmaceutical Co. Ltd., priority 2002, published 2004).
Several values for one entry are separate records, joined by “and”; a condition that tells them apart may be missing. Equal entries are not always repeated.

Assays:
hECaC2 [1] = assay: Quantitative TaqMan PCR of hECaC2 mRNA (normalized to GAPDH) in cultured human epidermal keratinocytes; assay type: cell-based; settings: for increase in hECaC2 expression: 2 mM calcium and/or 1 μM VitD, relative to untreated, time-matched cultures
Procedure: Quantitative, TaqMan-based PCR was used to assess changes in mRNA levels for hECaC2 (normalized to GAPDH) from keratinocyte cultures grown in 2 mM calcium or 1 μM VitD over 1 and 3 days. mRNA levels are expressed as fold-changes versus levels measured in sibling cultures grown for 1 and 3 days in basal calcium (0.06 mM) and no VitD. VitD caused greater increases in hECaC2 expression than did calcium. […] Note differences in scaling of y-axes. All increases are significant from control with the exception of calcium at 1 day. Results are mean-±SEM from three experiments.
(§1) There is currently no published data on expression of either hECaC1 or hECaC2 in either primary human keratinocytes or human skin, although murine ECaC2 expression has been reported for mouse skin (Weber et al, 2001 Biochem Biophys Res Commun 289:1287-1294). Therefore, the inventors investigated if keratinocytes expressed either or both ECaC channels, and whether expression of these channels was correlated with cell differentiation stimulated by either calcium or VitD. […] However, hECaC2 expression was readily detected in these same cultures. At 1 and 3 days of culture hECaC2 expression levels were 0.014±0.002% and 0.005±0.0005% of GAPDH (N=3). […] Therefore, the observed absence of hECaC1 expression in keratinocytes was indeed due to the mRNA for this gene being at levels so low that they were undetectable.
(§2) The effects of elevated calcium or VitD on expression of hECaC1 or 2 in cultured keratinocytes were investigated. […] After 1 day in 2 mM calcium there was a small but consistent decrease in hECaC2 expression, which averaged approximately 85% of the untreated control.

hECaC1 [2] = assay: Quantitative PCR of hECaC1 expression in cultured human keratinocytes; assay type: cell-based; settings: up to 3 days treatment with 2 mM calcium or 1 μM VitD
From the text: as §1, §2

hECaC2 [3] = assay: Quantitative PCR of hECaC2 mRNA in cultured human skin biopsies (explant culture); assay type: cell-based; settings: 1 μM VitD in culture medium (1.4 mM calcium), versus untreated biopsies cultured the same number of days
Procedure: Skin biopsies were taken from healthy donors and cultured for the indicated times with 1 μM VitD or with vehicle added to the culture medium. mRNA levels for hECaC2 were measured by quantitative PCR, normalized to GAPDH, and fold changes in expression were calculated relative to vehicle treated controls. Results are mean±SEM from two experiments.
The effect of VitD on hECaC2 expression in skin explants over time in culture was next examined, but the dynamics of gene expression in this system had to first be defined. All experiments with explant, cultured skin biopsies were performed in medium containing 1.4 mM calcium, a requirement for long-term viability (Varani et al, 1993 Am J Pathol 142:189-198). Biopsies placed in RNALater at time of collection were used to define expression levels of these genes at “−1” days in culture. Biopsies for which RNA was extracted immediately upon arrival in the lab (after overnight shipping from the source) were designated as “0” days in culture. Data for days 1 and 3 are from biopsies which were then cultured in the lab. All biopsies for an experiment were from the same donor.

hECaC1 [4] = settings: 1 μM VitD, cultured skin biopsies
Procedure: The effect of VitD on gene expression in cultured biopsies was assessed by comparing mRNA levels in the treated biopsies to levels in untreated biopsies cultured for the same number of days (FIG. 4).

hECaC2 [5] = settings: Caco-2 cells; Wood et al, 2001; cited from earlier work
murine ECaC1 or 2 = settings: including in skin; Weber et al, 2001; cited from earlier work

Molecule | hECaC2 expression, % of the untreated control (hECaC2 [1]; 1 day in 2 mM calcium) | increase in hECaC2 expression (hECaC2 [1]; 3 days treatment) | hECaC1 expression (hECaC1 [2]) | increase in hECaC2 expression (hECaC2 [1]; 1 day treatment) | increase in hECaC2 expression (hECaC2 [3]; 1 day) [fold] | increase in hECaC2 expression (hECaC2 [3]; 3 days) [fold] | hECaC1 expression in response to VitD (hECaC1 [4]) | hECaC2 expression response to VitD (hECaC2 [5]) | murine ECaC1 or 2 expression response to VitD (murine ECaC1 or 2)
[Ca+2] [calcium] | approximately 85% | approximately 3.8 fold | not detected | – | – | – | – | – | –
Vitamin D [VitD] | – | 51 fold | not detected | 63 fold and 60 fold | 3.6 | 7.8 | nor was expression induced | upregulated | unresponsive
